# Source: ChEMBL document CHEMBL1201862, “PubChem BioAssay data set” (2004)
#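 48-hour exposure; five concentrations; linearly interpolated endpoints. Abbreviation: GI50, concentration required for 50% inhibition of growth.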 The source made the active and inactive calls. Cut-off read from the data, not from the text of the source: active = GI50 up to about 1.1 µM and inactive = higher.
# Tests used:
# Test in all cases: NCI-60 cell line screen, 48 h
# SN12C = test system: SN12C
# LXFL 529 = test system: LXFL 529
# HT-29 = test system: HT-29
# IGROV-1 = test system: IGROV-1
# DMS-114 = test system: DMS-114
# OVCAR-3 = test system: OVCAR-3
# SK-MEL-28 = test system: SK-MEL-28
# HCT-116 = test system: HCT-116
# CAKI-1 = test system: CAKI-1
# U-251 = test system: U-251
# SK-MEL-2 = test system: SK-MEL-2
# SNB-19 = test system: SNB-19
# NCI-H23 = test system: NCI-H23
# RPMI-8226 = test system: RPMI-8226
# NCI-H460 = test system: NCI-H460
# CCRF-CEM = test system: CCRF-CEM
# KM-20L2 = test system: KM-20L2
# COLO 205 = test system: COLO 205
# DLD-1 = test system: DLD-1
# UACC-257 = test system: UACC-257
# Malme-3M = test system: Malme-3M
# DMS-273 = test system: DMS-273
# M19-MEL = test system: M19-MEL
# HOP-92 = test system: HOP-92
# SK-OV-3 = test system: SK-OV-3
# RXF 631 = test system: RXF 631
# XF498 = test system: XF498
# SR = test system: SR
# UO-31 = test system: UO-31
# HCT-15 = test system: HCT-15
# SNB-75 = test system: SNB-75
# OVCAR-4 = test system: OVCAR-4
# OVCAR-5 = test system: OVCAR-5
# MOLT-4 = test system: MOLT-4
# A549 = test system: A549
# EKVX = test system: EKVX
# SK-MEL-5 = test system: SK-MEL-5
# K562 = test system: K562
# RXF 393 = test system: RXF 393
# ACHN = test system: ACHN
# 786-0 = test system: 786-0
# OVCAR-8 = test system: OVCAR-8
# SF-295 = test system: SF-295
# TK-10 = test system: TK-10
# SW-620 = test system: SW-620
# SNB-78 = test system: SNB-78
# SF-268 = test system: SF-268
# SF-539 = test system: SF-539
# HL-60 = test system: HL-60
# HOP-62 = test system: HOP-62
# M14 = test system: M14
# HOP-18 = test system: HOP-18
# A498 = test system: A498
# UACC-62 = test system: UACC-62
# T47D = test system: T47D
# MDA-MB-231 = test system: MDA-MB-231
# Hs-578T = test system: Hs-578T
# MDA-N = test system: MDA-N
# NCI-H226 = test system: NCI-H226
# BT-549 = test system: BT-549
# KM12 = test system: KM12
# LOX IMVI = test system: LOX IMVI
# MCF7 = test system: MCF7
# MDA-MB-435 = test system: MDA-MB-435
# HCC 2998 = test system: HCC 2998
# PC-3 = test system: PC-3
# DU-145 = test system: DU-145
# NCI-H522 = test system: NCI-H522
compound,measurement,setting,value
O=[N+]([O-])c1ccc(C2N3CCCCC3[C@@H]3c4[nH]c5ccccc5c4CCN23)cc1 (stereo partly drawn),GI50,SN12C,15.4 µM (inactive)
same,GI50,LXFL 529,16.8 µM (inactive)
same,GI50,HT-29,3.48 µM (inactive)
same,GI50,IGROV-1,24 µM (inactive)
same,GI50,DMS-114,7.19 µM (inactive)
same,GI50,OVCAR-3,18.4 µM (inactive)
same,GI50,SK-MEL-28,16.3 µM (inactive)
same,GI50,HCT-116,6.44 µM (inactive)
same,GI50,CAKI-1,26.9 µM (inactive)
same,GI50,U-251,20.2 µM (inactive)
same,GI50,SK-MEL-2,16.9 µM (inactive)
same,GI50,SNB-19,16.6 µM (inactive)
same,GI50,NCI-H23,15.5 µM (inactive)
same,GI50,RPMI-8226,16.5 µM (inactive)
same,GI50,NCI-H460,19.2 µM (inactive)
same,GI50,CCRF-CEM,27.5 µM (inactive)
same,GI50,KM-20L2,11 µM (inactive)
same,GI50,COLO 205,17.6 µM (inactive)
same,GI50,DLD-1,10.8 µM (inactive)
same,GI50,UACC-257,16.5 µM (inactive)
same,GI50,Malme-3M,< 0.01 µM (active)
same,GI50,DMS-273,17.5 µM (inactive)
same,GI50,M19-MEL,6.07 µM (inactive)
same,GI50,HOP-92,44.6 µM (inactive)
same,GI50,SK-OV-3,22.6 µM (inactive)
same,GI50,RXF 631,28.5 µM (inactive)
same,GI50,XF498,17.8 µM (inactive)
same,GI50,SR,3.12 µM (inactive)
same,GI50,UO-31,16.1 µM (inactive)
same,GI50,HCT-15,14.3 µM
same,GI50,SNB-75,0.0638 µM (active)
same,GI50,OVCAR-4,22.6 µM (inactive)
same,GI50,OVCAR-5,25.9 µM (inactive)
same,GI50,MOLT-4,10.2 µM (inactive)
same,GI50,A549,19.5 µM (inactive)
same,GI50,EKVX,29.9 µM (inactive)
same,GI50,SK-MEL-5,15 µM (inactive)
same,GI50,K562,7.82 µM (inactive)
same,GI50,RXF 393,4.59 µM (inactive)
same,GI50,ACHN,12.8 µM (inactive)
same,GI50,786-0,28.1 µM (inactive)
same,GI50,OVCAR-8,30.4 µM (inactive)
same,GI50,SF-295,26.1 µM (inactive)
same,GI50,TK-10,10.7 µM (inactive)
same,GI50,SW-620,22.6 µM (inactive)
same,GI50,SNB-78,3.96 µM (inactive)
same,GI50,SF-268,15.4 µM (inactive)
same,GI50,SF-539,13.3 µM (inactive)
same,GI50,HL-60,80.2 µM (inactive)
same,GI50,HOP-62,19.5 µM (inactive)
same,GI50,M14,16.1 µM (inactive)
same,GI50,HOP-18,67.3 µM (inactive)
same,GI50,A498,11.3 µM (inactive)
same,GI50,UACC-62,5.22 µM (inactive)
C[N+](C)(C)CC1CCC(C[N+](C)(C)C)C1=O (stereo not drawn),GI50,T47D,3.42 µM (inactive)
same,GI50,SN12C,4.12 µM (inactive)
same,GI50,LXFL 529,0.555 µM (active)
same,GI50,HT-29,1.56 µM (inactive)
same,GI50,MDA-MB-231,19.6 µM (inactive)
same,GI50,IGROV-1,7.94 µM (inactive)
same,GI50,DMS-114,2.34 µM (inactive)
same,GI50,OVCAR-3,2.39 µM (inactive)
same,GI50,Hs-578T,38.6 µM (inactive)
same,GI50,MDA-N,4.94 µM (inactive)
same,GI50,HCT-116,1.71 µM (inactive)
same,GI50,CAKI-1,0.668 µM (active)
same,GI50,NCI-H226,12.9 µM (inactive)
same,GI50,U-251,9.12 µM (inactive)
same,GI50,SK-MEL-2,14.9 µM (inactive)
same,GI50,SNB-19,17.9 µM (inactive)
same,GI50,BT-549,17 µM (inactive)
same,GI50,NCI-H23,4.22 µM (inactive)
same,GI50,RPMI-8226,0.328 µM (active)
same,GI50,KM12,4.65 µM (inactive)
same,GI50,NCI-H460,24.3 µM (inactive)
same,GI50,KM-20L2,3.18 µM (inactive)
same,GI50,DLD-1,2.2 µM (inactive)
same,GI50,UACC-257,2.92 µM (inactive)
same,GI50,Malme-3M,1.08 µM (active)
same,GI50,LOX IMVI,4.84 µM (inactive)
same,GI50,DMS-273,2.16 µM (inactive)
same,GI50,M19-MEL,1.94 µM (inactive)
same,GI50,HOP-92,0.92 µM (active)
same,GI50,SK-OV-3,23.4 µM (inactive)
same,GI50,MCF7,1.75 µM (inactive)
same,GI50,RXF 631,5.47 µM (inactive)
same,GI50,MDA-MB-435,16.3 µM (inactive)
same,GI50,XF498,2.03 µM (inactive)
same,GI50,SR,0.4 µM (active)
same,GI50,UO-31,4.34 µM (inactive)
same,GI50,HCT-15,1.78 µM
same,GI50,SNB-75,1.95 µM (inactive)
same,GI50,OVCAR-4,2.38 µM (inactive)
same,GI50,OVCAR-5,7.28 µM (inactive)
same,GI50,A549,18.7 µM (inactive)
same,GI50,HCC 2998,8.63 µM (inactive)
same,GI50,PC-3,17.2 µM (inactive)
same,GI50,SK-MEL-5,9.02 µM (inactive)
same,GI50,K562,0.359 µM (active)
same,GI50,RXF 393,1.91 µM (inactive)
same,GI50,ACHN,1.82 µM (inactive)
same,GI50,786-0,1.91 µM (inactive)
same,GI50,SF-295,20.5 µM (inactive)
same,GI50,TK-10,3.3 µM (inactive)
same,GI50,DU-145,15.5 µM (inactive)
same,GI50,SNB-78,2.4 µM (inactive)
same,GI50,NCI-H522,0.2 µM (active)
same,GI50,SF-539,7.74 µM (inactive)
same,GI50,HOP-62,19.2 µM (inactive)
same,GI50,M14,1.72 µM (inactive)
same,GI50,HOP-18,0.794 µM (active)
same,GI50,A498,6.78 µM (inactive)
same,GI50,UACC-62,8.53 µM (inactive)
